Laboratory results taken from ChEMBL document CHEMBL4651402, “Screening of ~5500 FDA-approved drugs and clinical candidates for anti-SARS-CoV-2 activity” (2021).

Key:
SARS-CoV-2 [1] = experiment: microbe, parasite or virus in culture; format: functional, organism-based, Chlorocebus sabaeus, Vero C1008; settings: Severe acute respiratory syndrome coronavirus 2, Vero C1008, 48 h
in vitro = settings: chlorocebus sabaeus, Vero E6 (Vero C1008) cells
SARS-CoV-2 [2] = experiment: microbe, parasite or virus in culture; settings: Severe acute respiratory syndrome coronavirus 2, Vero C1008, 48 h

For `CC(C)(C)NC(=O)[C@@H]1C[C@@H]2CCCC[C@@H]2CN1C[C@@H](O)[C@H](Cc1ccccc1)NC(=O)[C@H](CC(N)=O)NC(=O)c1ccc2ccccc2n1`, the IC50 (SARS-CoV-2 [1]; read-out: IC50) was > 100 µM, the IC50 (SARS-CoV-2 [1]; read-out: pIC50 (converted)) was > 100 µM and the CC50 at 48 h (in vitro; CC50) was 18.2 µM. The CC50 at 48 h (in vitro; pCC50) was 18.2 µM, the IC50 (SARS-CoV-2 [2]) was > 100 µM and the IC50 (SARS-CoV-2 [2]; read-out: pIC50 (converted)) was > 100 µM.
In the case of `COc1cc2c3cc1Oc1cc(ccc1O)C[C@@H]1c4c(cc(OC)c(O)c4Oc4ccc(cc4)C[C@H]3N(C)CC2)CCN1C`, the IC50 (SARS-CoV-2 [1]; read-out: IC50) is reported as ~5.37 µM, the IC50 (SARS-CoV-2 [1]; read-out: pIC50 (converted)) is reported as ~5.37 µM and the CC50 at 48 h (in vitro; CC50) is reported as 11.5 µM. For the same molecule, the CC50 at 48 h (in vitro; pCC50) was 11.5 µM, the IC50 (SARS-CoV-2 [2]) was > 10 µM and the IC50 (SARS-CoV-2 [2]; read-out: pIC50 (converted)) was > 10 µM.
In the case of `COc1ccc(C[C@@H]2c3cc(OC)c(OC)cc3CC[N@+]2(C)CCC(=O)OCCCCCOC(=O)CC[N@@+]2(C)CCc3cc(OC)c(OC)cc3[C@H]2Cc2ccc(OC)c(OC)c2)cc1OC`, the IC50 (SARS-CoV-2 [1]; read-out: IC50) is reported as > 20 µM, the IC50 (SARS-CoV-2 [1]; read-out: pIC50 (converted)) is reported as > 20 µM and the CC50 at 48 h (in vitro; CC50) is reported as > 20 µM. The CC50 at 48 h (in vitro; pCC50) was > 20 µM.
For `COc1ccc2nc3c(c(N)c2c1)CCCC3`, the IC50 (SARS-CoV-2 [1]; read-out: IC50) was > 25.1 µM, the IC50 (SARS-CoV-2 [1]; read-out: pIC50 (converted)) was > 25.1 µM and the CC50 at 48 h (in vitro; CC50) was 47.9 µM. For the same molecule, the CC50 at 48 h (in vitro; pCC50) was 47.9 µM, the IC50 (SARS-CoV-2 [2]) was ~11.5 µM and the IC50 (SARS-CoV-2 [2]; read-out: pIC50 (converted)) was ~11.5 µM.
In the case of `CNCCC=C1c2ccccc2C=Cc2ccccc21`, the IC50 (SARS-CoV-2 [1]; read-out: IC50) is reported as > 50.1 µM, the IC50 (SARS-CoV-2 [1]; read-out: pIC50 (converted)) is reported as > 50.1 µM and the CC50 at 48 h (in vitro; CC50) is reported as 23.4 µM. The CC50 at 48 h (in vitro; pCC50) was 23.4 µM, the IC50 (SARS-CoV-2 [2]) was > 50.1 µM and the IC50 (SARS-CoV-2 [2]; read-out: pIC50 (converted)) was > 50.1 µM.
In the case of `Cc1[nH]c(/C=C2/C(=O)Nc3ccccc32)c(C)c1CCC(=O)O`, the IC50 (SARS-CoV-2 [1]; read-out: IC50) is reported as > 50.1 µM, the IC50 (SARS-CoV-2 [1]; read-out: pIC50 (converted)) is reported as > 50.1 µM and the CC50 at 48 h (in vitro; CC50) is reported as > 50.1 µM. For the same molecule, the CC50 at 48 h (in vitro; pCC50) was > 50.1 µM, the IC50 (SARS-CoV-2 [2]) was ~2 µM and the IC50 (SARS-CoV-2 [2]; read-out: pIC50 (converted)) was ~2 µM.
With `COC(=O)N[C@H](C(=O)N1CCC[C@H]1c1ncc(-c2ccc(-c3ccc(-c4cnc([C@@H]5CCCN5C(=O)[C@@H](NC(=O)OC)C(C)C)[nH]4)cc3)cc2)[nH]1)C(C)C` the IC50 (SARS-CoV-2 [1]; read-out: IC50) was > 100 µM, the IC50 (SARS-CoV-2 [1]; read-out: pIC50 (converted)) was > 100 µM and the CC50 at 48 h (in vitro; CC50) was ~19.7 µM. For the same molecule, the CC50 at 48 h (in vitro; pCC50) was ~19.5 µM, the IC50 (SARS-CoV-2 [2]) was > 100 µM and the IC50 (SARS-CoV-2 [2]; read-out: pIC50 (converted)) was > 100 µM.
With `CC(C)[C@H](N/C(=N\S(=O)(=O)c1ccc(Cl)cc1)N1C[C@@H](c2ccccc2)C(c2ccc(Cl)cc2)=N1)C(N)=O` the IC50 (SARS-CoV-2 [1]; read-out: IC50) was > 50.1 µM, the IC50 (SARS-CoV-2 [1]; read-out: pIC50 (converted)) was > 50.1 µM and the CC50 at 48 h (in vitro; CC50) was 16 µM. For the same molecule, the CC50 at 48 h (in vitro; pCC50) was 15.8 µM, the IC50 (SARS-CoV-2 [2]) was > 100 µM and the IC50 (SARS-CoV-2 [2]; read-out: pIC50 (converted)) was > 100 µM.
With `COc1ccc2c(c1)N(CC(C)CN(C)C)c1ccccc1S2` (stereo not drawn) the IC50 (SARS-CoV-2 [1]; read-out: IC50) was > 100 µM, the IC50 (SARS-CoV-2 [1]; read-out: pIC50 (converted)) was > 100 µM and the CC50 at 48 h (in vitro; CC50) was 22.9 µM. For the same molecule, the CC50 at 48 h (in vitro; pCC50) was 22.9 µM, the IC50 (SARS-CoV-2 [2]) was > 100 µM and the IC50 (SARS-CoV-2 [2]; read-out: pIC50 (converted)) was > 100 µM.
For `COc1cc2c3cc1Oc1c(OC)c(OC)cc4c1[C@@H](Cc1cccc(c1)Oc1ccc(c(O)c1)C[C@@H]3N(C)CC2)N(C)CC4`, the IC50 (SARS-CoV-2 [1]; read-out: IC50) was > 6.31 µM, the IC50 (SARS-CoV-2 [1]; read-out: pIC50 (converted)) was > 6.31 µM and the CC50 at 48 h (in vitro; CC50) was 10.2 µM. For the same molecule, the CC50 at 48 h (in vitro; pCC50) was 10.2 µM, the IC50 (SARS-CoV-2 [2]) was 8.51 µM and the IC50 (SARS-CoV-2 [2]; read-out: pIC50 (converted)) was 8.51 µM.
In the case of `COC(=O)N[C@H](C(=O)N1CCC[C@H]1c1nc(-c2ccc3cc(-c4ccc5[nH]c([C@@H]6CCCN6C(=O)[C@@H](NC(=O)OC)C(C)C)nc5c4)ccc3c2)c[nH]1)C(C)C`, the IC50 (SARS-CoV-2 [1]; read-out: IC50) is reported as > 100 µM, the IC50 (SARS-CoV-2 [1]; read-out: pIC50 (converted)) is reported as > 100 µM and the CC50 at 48 h (in vitro; CC50) is reported as 12.7 µM. The CC50 at 48 h (in vitro; pCC50) was 12.6 µM, the IC50 (SARS-CoV-2 [2]) was > 100 µM and the IC50 (SARS-CoV-2 [2]; read-out: pIC50 (converted)) was > 100 µM.
In the case of `CCC1CN2CCC1CC2C(O)c1ccnc2ccc(OCCC(C)C)cc12` (stereo not drawn), the IC50 (SARS-CoV-2 [1]; read-out: IC50) is reported as > 100 µM, the IC50 (SARS-CoV-2 [1]; read-out: pIC50 (converted)) is reported as > 100 µM and the CC50 at 48 h (in vitro; CC50) is reported as 11.4 µM. For the same molecule, the CC50 at 48 h (in vitro; pCC50) was 11.2 µM, the IC50 (SARS-CoV-2 [2]) was > 100 µM and the IC50 (SARS-CoV-2 [2]; read-out: pIC50 (converted)) was > 100 µM.
For `COc1ccc(C#Cc2ccccc2)c(CCC(C)N(C)CCc2ccc(OC)c(OC)c2)c1` (stereo not drawn), the IC50 (SARS-CoV-2 [1]; read-out: IC50) was > 100 µM, the IC50 (SARS-CoV-2 [1]; read-out: pIC50 (converted)) was > 100 µM and the CC50 at 48 h (in vitro; CC50) was 4.84 µM. The CC50 at 48 h (in vitro; pCC50) was 4.79 µM, the IC50 (SARS-CoV-2 [2]) was 4.27 µM and the IC50 (SARS-CoV-2 [2]; read-out: pIC50 (converted)) was 4.27 µM.
With `CN(C)C/C=C(\c1ccc(Br)cc1)c1cccnc1` the CC50 at 48 h (in vitro; CC50) was > 10 µM, the CC50 at 48 h (in vitro; pCC50) was > 10 µM and the IC50 (SARS-CoV-2 [2]) was > 20 µM. For the same molecule, the IC50 (SARS-CoV-2 [2]; read-out: pIC50 (converted)) was > 20 µM.
In the case of `COc1ccc([C@@H](Cc2ccncc2)c2ccccc2)cc1OC1CCCC1`, the IC50 (SARS-CoV-2 [1]; read-out: IC50) is reported as > 100 µM, the IC50 (SARS-CoV-2 [1]; read-out: pIC50 (converted)) is reported as > 100 µM and the CC50 at 48 h (in vitro; CC50) is reported as 23.4 µM. For the same molecule, the CC50 at 48 h (in vitro; pCC50) was 23.4 µM, the IC50 (SARS-CoV-2 [2]) was > 100 µM and the IC50 (SARS-CoV-2 [2]; read-out: pIC50 (converted)) was > 100 µM.
Work on `CCC(CC)COC(=O)[C@H](C)N[P@](=O)(OC[C@H]1O[C@@](C#N)(c2ccc3c(N)ncnn23)[C@H](O)[C@@H]1O)Oc1ccccc1` yielded an IC50 (SARS-CoV-2 [1]; read-out: IC50) of ~2.6 µM, an IC50 (SARS-CoV-2 [1]; read-out: pIC50 (converted)) of ~2.57 µM and a CC50 at 48 h (in vitro; CC50) of 95.5 µM. The CC50 at 48 h (in vitro; pCC50) was 95.5 µM, the IC50 (SARS-CoV-2 [2]) was ~4.64 µM and the IC50 (SARS-CoV-2 [2]; read-out: pIC50 (converted)) was ~4.68 µM.
In the case of `CN1[C@@H]2CC[C@H]1CC(OC(c1ccccc1)c1ccccc1)C2` (stereo partly drawn), the CC50 at 48 h (in vitro; CC50) is reported as ~46.8 µM and the CC50 at 48 h (in vitro; pCC50) is reported as ~46.8 µM.
For `O=C1NCN(c2ccccc2)C12CCN(CCCC(c1ccc(F)cc1)c1ccc(F)cc1)CC2`, the IC50 (SARS-CoV-2 [1]; read-out: IC50) was > 100 µM, the IC50 (SARS-CoV-2 [1]; read-out: pIC50 (converted)) was > 100 µM and the CC50 at 48 h (in vitro; CC50) was 7 µM. For the same molecule, the CC50 at 48 h (in vitro; pCC50) was 6.92 µM, the IC50 (SARS-CoV-2 [2]) was > 100 µM and the IC50 (SARS-CoV-2 [2]; read-out: pIC50 (converted)) was > 100 µM.
With `CCN(CCO)CCC[C@H](C)Nc1ccnc2cc(Cl)ccc12` the IC50 (SARS-CoV-2 [1]; read-out: IC50) was ~18.8 µM, the IC50 (SARS-CoV-2 [1]; read-out: pIC50 (converted)) was ~18.6 µM and the CC50 at 48 h (in vitro; CC50) was > 50.1 µM. The CC50 at 48 h (in vitro; pCC50) was > 50.1 µM, the IC50 (SARS-CoV-2 [2]) was 12.7 µM and the IC50 (SARS-CoV-2 [2]; read-out: pIC50 (converted)) was 12.6 µM.
With `O=C(NO)c1ccc(C2=Nc3ccccc3Oc3ccccc32)cc1` the IC50 (SARS-CoV-2 [1]; read-out: IC50) was > 100 µM, the IC50 (SARS-CoV-2 [1]; read-out: pIC50 (converted)) was > 100 µM and the CC50 at 48 h (in vitro; CC50) was 1.55 µM. The CC50 at 48 h (in vitro; pCC50) was 1.55 µM, the IC50 (SARS-CoV-2 [2]) was > 100 µM and the IC50 (SARS-CoV-2 [2]; read-out: pIC50 (converted)) was > 100 µM.
For `CCOC(=O)Oc1c(OC)cc(C(=O)OC2CC3CN4CCc5c([nH]c6cc(OC)ccc56)C4CC3C(C(=O)OC)C2OC)cc1OC` (stereo not drawn), the IC50 (SARS-CoV-2 [1]; read-out: IC50) was > 100 µM, the IC50 (SARS-CoV-2 [1]; read-out: pIC50 (converted)) was > 100 µM and the CC50 at 48 h (in vitro; CC50) was 8.91 µM. For the same molecule, the CC50 at 48 h (in vitro; pCC50) was 8.91 µM, the IC50 (SARS-CoV-2 [2]) was > 100 µM and the IC50 (SARS-CoV-2 [2]; read-out: pIC50 (converted)) was > 100 µM.
